Experimental data published in patent US20220202905A1, “COMPOSITION FOR PREVENTING OR TREATING NEUROTROPHIC KERATITIS WHICH CONTAINS PACAP PEPTIDE OR STABILIZED PACAP PEPTIDE” (SENJU PHARMACEUTICAL CO., LTD., priority 2019, published 2022).
Square brackets hold non-standard residues; d marks the D form. Peptide text beside a SMILES is read from it. Ala(1H-tetrazol-5-yl) = N[C@@H](Cc1nnn[nH]1)C(=O)O

What was measured:
[1] = Peptide stability test, phosphate buffer (pH 7.0), 40° C. storage, HPLC remaining rate; format: physicochemical; settings: Table 4; 100 μM in phosphate buffer pH 7.0; HPLC conditions 1
Experimental: Peptides 1 and 3 to 5 synthesized in Example 2 were weighed and dissolved in phosphate buffer (pH 7.0) to prepare 1.0 mM peptide solutions. The 1.0 mM peptide solutions were then diluted with phosphate buffer to 100 μM. After filtering with Chromatdisk (product of Merck Millipore, Millex-GV, 0.22 μm), each filtrate was dispensed into an LC vial (Waters Deactivated […] prepared peptide solutions were incubated for one month or 2 months in a 40° C. thermostatic bath to obtain stored samples. A simultaneously prepared sample among the peptide solutions that was not stored was used as a standard sample (initial sample). The standard sample and the stored samples were stored at -30° C. until sample analysis. Using the total weight of the aqueous peptide solution and storage vessel as the specimen weight, measurements were recorded as the specimen weights before storage and the specimen weights after storage under different storage conditions. The empty weight of the storage vessel was also measured, and the moisture permeability was determined by the following formula. After stirring the standard sample and the stored samples with a vortex mixer, each peptide solution was transferred to an HPLC vial (Deactivated Qsert vial by Waters Co.). Reverse-phase HPLC (HPLC system: Prominence by Shimadzu Corp.) was conducted under the conditions shown in Table 3 below for analysis of the peptide solutions, and chromatograms were obtained. Guard column: XSelect CSH C18 by Waters Co., 5 μm, 4.6×20 mm Guard Cartridge Detection wavelength: 220 nm Mobile phase A: 0.1% formic acid aqueous solution Mobile phase B: 0.1% acetonitrile formate solution Measuring time: 30 minutes Measuring sample injection rate: 50 μL Flow rate: 1.0 mL/min Sample cooler: 4° C. Column temperature: 40° C. Mobile phase delivery: The mixing ratio of mobile phase A and mobile phase B was varied as shown in Table 3 for linear concentration gradient control. The peak area value for the peptide in the chromatogram was calculated, and the remaining rate (remaining rate before correction for water) was calculated using formula (2). The remaining rate after correction for water was also calculated from the remaining rate before correction for water using formula (3), taking into account the moisture permeability of the vessel. Peptides 10 and 11 synthesized in Example 2 were weighed and dissolved in phosphate buffer (pH 7.0) to prepare 1.0 mM peptide solutions. Each solution was filtered with a Chromatdisk (product of Merck Millipore. Millex-GV, 0.22 μm). Each filtrate was diluted to 100 μM with phosphate buffer (pH 7.0) and dispensed into a tube (Protein LoBind Tube by Eppendorf Co.). The prepared peptide solutions were incubated for one month or 2 months in a 40° C. thermostatic bath to obtain stored samples. A simultaneously prepared sample among the peptide solutions that was not stored was used as a standard sample (initial sample). The standard sample and the stored samples were stored at -30° C. until sample analysis. The remaining rate after correction for water for each peptide among the stored samples was measured in the same manner as Example 4, and the results are shown in Table 8.

[2] = Peptide stability test, Tris buffer (pH 7.0), 60° C. storage, HPLC remaining rate; format: physicochemical; settings: Table 6; 100 μM in Tris buffer pH 7.0; HPLC conditions 2
Summary of the method: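 Peptides at 100 μM in Tris buffer (pH 7.0) stored 1 or 2 weeks at 60° C.; unstored sample kept at −30° C. as initial reference. Remaining peptide quantified by reversed-phase HPLC at 220 nm (formic acid/acetonitrile gradient, 40° C. column), as water-corrected remaining rate.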

| SMILES | remaining rate after correction for water, 40° C., 1 month preservation [1] [%] | remaining rate after correction for water, 40° C., 2 months preservation [1] [%] | remaining rate after correction for water, 60° C., 1 week preservation [2] [%] | remaining rate after correction for water, 60° C., 2 weeks preservation [2] [%] |
| --- | --- | --- | --- | --- |
| CC[C@H](C)[C@H](NC(=O)CNC(=O)[C@H](CC(=O)O)NC(=O)[C@H](CO)NC(=O)[C@@H](N)Cc1cnc[nH]1)C(=O)N[C@@H](Cc1ccccc1)C(=O)N[C@H](C(=O)N[C@@H](CC(=O)O)C(=O)N[C@@H](CO)C(=O)N[C@@H](Cc1ccc(O)cc1)C(=O)N[C@@H](CO)C(=O)N[C@@H](CCCNC(=N)N)C(=O)N[C@@H](Cc1ccc(O)cc1)C(=O)N[C@@H](CCCNC(=N)N)C(=O)N[C@@H](CCCCN)C(=O)N[C@@H](CCC(N)=O)C(=O)N[C@@H](CCSC)C(=O)N[C@@H](C)C(=O)N[C@H](C(=O)N[C@@H](CCCCN)C(=O)N[C@@H](CCCCN)C(=O)N[C@@H](Cc1ccc(O)cc1)C(=O)N[C@@H](CC(C)C)C(=O)N[C@@H](C)C(=O)N[C@@H](C)C(=O)N[C@H](C(=O)N[C@@H](CC(C)C)C(N)=O)C(C)C)C(C)C)[C@@H](C)O [Peptide 1, reference compound] | 37.4 | 21.3 |  |  |
| CC[C@H](C)[C@H](NC(=O)CNC(=O)[C@H](Cc1nnn[nH]1)NC(=O)[C@H](CO)NC(=O)[C@H](Cc1c[nH]cn1)NC(C)=O)C(=O)N[C@@H](Cc1ccccc1)C(=O)N[C@H](C(=O)N[C@@H](Cc1nnn[nH]1)C(=O)N[C@@H](CO)C(=O)N[C@@H](Cc1ccc(O)cc1)C(=O)N[C@@H](CO)C(=O)N[C@@H](CCCNC(=N)N)C(=O)N[C@@H](Cc1ccc(O)cc1)C(=O)N[C@@H](CCCNC(=N)N)C(=O)N[C@@H](CCCCN)C(=O)N[C@@H](CCC(N)=O)C(=O)N[C@@H](CC(C)C)C(=O)N[C@@H](C)C(=O)N[C@H](C(=O)N[C@@H](CCCCN)C(=O)N[C@@H](CCCCN)C(=O)N[C@@H](Cc1ccc(O)cc1)C(=O)N[C@@H](CC(C)C)C(=O)N[C@@H](C)C(=O)N[C@@H](C)C(=O)N[C@H](C(=O)N[C@@H](CC(C)C)C(N)=O)C(C)C)C(C)C)[C@@H](C)O [Peptide 9] (Ac-HS[Ala(1H-tetrazol-5-yl)]GIFT[Ala(1H-tetrazol-5-yl)]SYSRYRKQLAVKKYLAAVL-NH2) |  |  | 98.4 | 92.8 |
